Values quoted from earlier work as cited in patent US20070190036A1, “Microencapsulation of pancreatic islets within a thin coat of glucagon-like peptide-1 functionalized poly(ethylene glycol)” (priority 2006, published 2007).

Tested on: rat pancreatic islets
Details: isolated rat pancreatic islets

## glucagon-like peptide 1 [GLP-1]
  concentration at which insulinotropic activity began: 2.5 nM
  concentration at which insulinotropic activity was saturated: 250 nM
